Experimental data from the NIST ThermoML archive (doi:10.1021/je1003065).
Numbers after ± are expanded uncertainties.

Experiment: mn = molality of the nth substance listed, in mol/kg
Settings: Liquid, Vibrating tube method

[Br-].[Li+] [lithium bromide] + CCO
Settings | mass density [kg/m3]
293.15 K, 1024 kPa, m1 = 2.833 | 956.08 ± 1.9
293.15 K, 1034 kPa, m1 = 0.9499 | 850.27 ± 1.7
293.15 K, 5015 kPa, m1 = 3.368 | 986.33 ± 2
293.15 K, 5029 kPa, m1 = 0.9499 | 853.2 ± 1.7
293.15 K, 5201 kPa, m1 = 2.833 | 959.11 ± 1.9
293.15 K, 10003 kPa, m1 = 0.2335 | 812.89 ± 1.6
293.15 K, 10032 kPa, m1 = 2.833 | 962.5 ± 1.9
293.15 K, 10041 kPa, m1 = 0.9499 | 856.81 ± 1.7
293.15 K, 10061 kPa, m1 = 0.5972 | 835.46 ± 1.7
293.15 K, 19924 kPa, m1 = 0.9499 | 863.69 ± 1.7
293.15 K, 20003 kPa, m1 = 0.2335 | 820.16 ± 1.7
293.15 K, 20038 kPa, m1 = 3.368 | 996.51 ± 2
293.15 K, 29895 kPa, m1 = 0.9499 | 870.31 ± 1.8
293.15 K, 29978 kPa, m1 = 3.368 | 1002.69 ± 2
293.15 K, 29993 kPa, m1 = 0.5972 | 849.31 ± 1.7
293.15 K, 39912 kPa, m1 = 0.5972 | 855.69 ± 1.7
293.15 K, 39956 kPa, m1 = 0.2335 | 833.59 ± 1.7
293.15 K, 39985 kPa, m1 = 2.833 | 981.35 ± 2
293.15 K, 40003 kPa, m1 = 0.9499 | 876.7 ± 1.8
293.15 K, 49936 kPa, m1 = 3.368 | 1014.01 ± 2
293.15 K, 49993 kPa, m1 = 0.5972 | 861.83 ± 1.8
293.15 K, 50002 kPa, m1 = 0.9499 | 882.7 ± 1.8
293.15 K, 59924 kPa, m1 = 0.2335 | 845.57 ± 1.8
293.15 K, 60001 kPa, m1 = 2.833 | 992.24 ± 2
293.15 K, 60032 kPa, m1 = 0.9499 | 888.39 ± 1.8
293.15 K, 70032 kPa, m1 = 2.833 | 997.31 ± 2
293.15 K, 70102 kPa, m1 = 0.9499 | 893.78 ± 1.8
293.15 K, 79914 kPa, m1 = 1.462 | 928.13 ± 1.9
293.15 K, 79926 kPa, m1 = 0.2335 | 856.13 ± 1.8
293.15 K, 79956 kPa, m1 = 0.9499 | 898.74 ± 1.8
293.15 K, 79956 kPa, m1 = 2.833 | 1002.13 ± 2
293.15 K, 80104 kPa, m1 = 3.368 | 1029.17 ± 2.1
293.15 K, 89245 kPa, m1 = 0.9499 | 903.13 ± 1.9
293.15 K, 89926 kPa, m1 = 0.5972 | 882.72 ± 1.8
293.15 K, 89954 kPa, m1 = 0.2335 | 860.88 ± 1.8
293.15 K, 89958 kPa, m1 = 2.833 | 1006.83 ± 2
293.15 K, 89963 kPa, m1 = 1.462 | 932.84 ± 1.9
293.15 K, 89989 kPa, m1 = 3.368 | 1033.84 ± 2.1
293.15 K, 99824 kPa, m1 = 1.462 | 937.16 ± 1.9
293.15 K, 99895 kPa, m1 = 3.368 | 1038.46 ± 2.1
293.15 K, 99965 kPa, m1 = 0.9499 | 907.85 ± 1.9
293.15 K, 99965 kPa, m1 = 2.833 | 1011.42 ± 2
293.15 K, 99986 kPa, m1 = 0.2335 | 865.27 ± 1.8
293.16 K, 1250 kPa, m1 = 3.368 | 983.6 ± 2
293.16 K, 19905 kPa, m1 = 0.5972 | 842.47 ± 1.7
293.16 K, 29938 kPa, m1 = 2.833 | 975.41 ± 1.9
293.16 K, 39654 kPa, m1 = 3.368 | 1008.34 ± 2
293.16 K, 69784 kPa, m1 = 0.2335 | 850.96 ± 1.8
293.16 K, 99971 kPa, m1 = 0.5972 | 887.12 ± 1.9
293.17 K, 1430 kPa, m1 = 2.272 | 926.33 ± 1.9
293.17 K, 1504 kPa, m1 = 0.5972 | 829.09 ± 1.7
293.17 K, 4902 kPa, m1 = 2.272 | 928.89 ± 1.9
293.17 K, 4938 kPa, m1 = 0.5972 | 831.68 ± 1.7
293.17 K, 10030 kPa, m1 = 2.272 | 932.58 ± 1.9
293.17 K, 19789 kPa, m1 = 2.272 | 939.24 ± 1.9
293.17 K, 29946 kPa, m1 = 2.272 | 945.75 ± 1.9
293.17 K, 40161 kPa, m1 = 2.272 | 951.9 ± 1.9
293.17 K, 49963 kPa, m1 = 2.272 | 957.45 ± 1.9
293.17 K, 89964 kPa, m1 = 2.272 | 977.54 ± 2
293.17 K, 99958 kPa, m1 = 2.272 | 982.14 ± 2
293.18 K, 60025 kPa, m1 = 2.272 | 962.8 ± 1.9
293.18 K, 69979 kPa, m1 = 2.272 | 967.88 ± 1.9
293.19 K, 79838 kPa, m1 = 2.272 | 972.67 ± 2
298.09 K, 1141 kPa, m1 = 0.5972 | 824.73 ± 1.6
298.1 K, 99589 kPa, m1 = 2.272 | 978.52 ± 2
298.11 K, 60144 kPa, m1 = 1.462 | 914.77 ± 1.9
298.12 K, 39801 kPa, m1 = 1.462 | 902.81 ± 1.8
298.12 K, 39933 kPa, m1 = 2.272 | 947.93 ± 1.9
298.12 K, 49922 kPa, m1 = 1.462 | 908.93 ± 1.8
298.12 K, 49993 kPa, m1 = 2.272 | 953.69 ± 1.9
298.12 K, 60039 kPa, m1 = 2.272 | 959.15 ± 1.9
298.12 K, 99737 kPa, m1 = 3.368 | 1034.98 ± 2.1
298.13 K, 5308 kPa, m1 = 1.462 | 879.29 ± 1.8
298.13 K, 59998 kPa, m1 = 0.5972 | 864.41 ± 1.8
298.13 K, 69983 kPa, m1 = 2.272 | 964.25 ± 1.9
298.13 K, 80661 kPa, m1 = 3.368 | 1025.85 ± 2.1
298.13 K, 89925 kPa, m1 = 2.272 | 973.93 ± 2
298.13 K, 89985 kPa, m1 = 3.368 | 1030.35 ± 2.1
298.14 K, 5004 kPa, m1 = 2.833 | 954.84 ± 1.9
298.14 K, 20004 kPa, m1 = 0.2335 | 816.39 ± 1.6
298.14 K, 30021 kPa, m1 = 2.833 | 971.59 ± 1.9
298.14 K, 70023 kPa, m1 = 2.833 | 993.85 ± 2
298.14 K, 79924 kPa, m1 = 0.2335 | 853.09 ± 1.8
298.15 K, 1023 kPa, m1 = 2.833 | 951.93 ± 1.9
298.15 K, 1045 kPa, m1 = 0.9499 | 845.75 ± 1.7
298.15 K, 1204 kPa, m1 = 0.2335 | 801.78 ± 1.6
298.15 K, 5002 kPa, m1 = 0.2335 | 805.08 ± 1.6
298.15 K, 5004 kPa, m1 = 0.9499 | 848.93 ± 1.7
298.15 K, 5221 kPa, m1 = 0.5972 | 827.89 ± 1.7
298.15 K, 10024 kPa, m1 = 0.9499 | 852.82 ± 1.7
298.15 K, 10064 kPa, m1 = 0.2335 | 808.99 ± 1.6
298.15 K, 19935 kPa, m1 = 2.833 | 965.15 ± 1.9
298.15 K, 19956 kPa, m1 = 0.9499 | 860.13 ± 1.7
298.15 K, 29124 kPa, m1 = 0.2335 | 822.86 ± 1.7
298.15 K, 29945 kPa, m1 = 0.9499 | 866.97 ± 1.8
298.15 K, 29950 kPa, m1 = 2.272 | 941.76 ± 1.9
298.15 K, 29993 kPa, m1 = 0.5972 | 845.75 ± 1.7
298.15 K, 29993 kPa, m1 = 1.462 | 896.53 ± 1.8
298.15 K, 39784 kPa, m1 = 0.9499 | 873.28 ± 1.8
298.15 K, 39830 kPa, m1 = 0.5972 | 852.23 ± 1.7
298.15 K, 39845 kPa, m1 = 2.833 | 977.51 ± 2
298.15 K, 49956 kPa, m1 = 0.2335 | 836.44 ± 1.7
298.15 K, 49963 kPa, m1 = 0.5972 | 858.53 ± 1.8
298.15 K, 50012 kPa, m1 = 0.9499 | 879.42 ± 1.8
298.15 K, 59968 kPa, m1 = 2.833 | 988.68 ± 2
